BigSolDB 2.1

COC(=O)N(OC)c1ccccc1COc1ccn(-c2ccc(Cl)cc2)n1
solubility (mole fraction)
Conditions | 283.15 K | 288.15 K | 293.15 K | 298.15 K | 303.15 K | 308.15 K
in cyclohexane | 0.000942 | 0.00148 | 0.00217 | 0.00311 | 0.00448 | 0.00609
in ethanol | 0.00458 | 0.00601 | 0.00866 | 0.0117 | 0.0184 | 0.0326
in isobutanol | 0.00283 | 0.00377 | 0.00527 | 0.00758 | 0.0115 | 0.0186
in isopropanol | 0.00248 | 0.00332 | 0.00481 | 0.00687 | 0.0102 | 0.0163
in n-butanol | 0.00534 | 0.00663 | 0.00916 | 0.0132 | 0.0214 | 0.0343
